Test results taken from patent US20170226121A1, “MODULATORS OF VIRUS ASSEMBLY AS ANTIVIRAL AGENTS” (Indiana University Research and Technology Corporation, priority 2011, published 2017).
“And” between values parts separate entries of the source, which are not always exact repeats. Identical values can stand only once. Like-named read-outs stand apart in the source and are kept apart here.

Experiments:
in vitro = settings: human
Description: (§1) Antiviral activity was measured using an inducible HBV expression system, AD38 cells. (Ladner, S. K. et al., Antimicrob Agents Chemother 41, 1715-20 (1997)). Initial experiments tested the activity of 10 μM HAP (percentage viral assembly at 24 hour). For active molecules, effective concentrations were determined for suppression of HBV production by 50% and by 90%; this value is reported in μM. Compound toxicity was tested in the parent cell line, HepG2. […] All of these experiments were performed blind, in the laboratory of Raymond Schinazi (Emory University).

HepG2 = test: in vitro
Description: as §1

[1] = system: HBV production in HepAD38 (AD38) cells; test: Antiviral activity, inducible HBV expression system, AD38 cells; format: cell-based, hepatitis B virus; settings: for EC90: suppression of HBV production by 90%
Description: Antiviral activity was measured using an inducible HBV expression system, AD38 cells. […] Initial experiments tested the activity of 10 μM HAP (percentage viral assembly at 24 hour). For active molecules, effective concentrations were determined for suppression of HBV production by 50% and by 90%; this value is reported in μM.

[2] = target: labeled HBV core protein dimer, Cp150Bo (Hepatitis B virus genotype D subtype adw, UniProt P03147, C107A/C48A/C61A/R150C); test: Fluorescence quenching assay of HBV assembly; format: biochemical; settings: single time point 24 hr after assembly initiated with NaCl, about 30±15% assembly without stimulation
[3] = value in parentheses in CC50 cell
[4] = suppression of HBV production by 50%, read-out: HepAD38 EC50

Sequence of labeled HBV core protein dimer, Cp150Bo (P03147 1-150 C48A/C61A/C107A/R150C): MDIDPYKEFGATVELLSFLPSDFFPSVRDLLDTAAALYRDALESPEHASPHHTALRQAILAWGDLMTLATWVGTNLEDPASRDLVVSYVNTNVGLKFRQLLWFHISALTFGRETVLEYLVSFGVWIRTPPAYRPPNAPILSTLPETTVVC

SMILES | Assembly [2] [%] | also measured
Nc1ccn([C@@H]2CS[C@H](CO)O2)c(=O)n1 [Compound 3TC, lamivudine, reference compound] |  | CC50 (in vitro): > 100000 nM; (YI) ratio of CC50/EC50, therapeutic index (HepG2): > 1000; inhibition at 10 µM ([1]; Hepatitis B virus, HePAD38, compound at 10 μM): 98.6%; EC50 ([1]; Hepatitis B virus, HePAD38, suppression of HBV production by 50%, read-out: HepAD38 EC50): 60 nM; EC90 ([1]; Hepatitis B virus, HePAD38): 200 nM; Δ-Ct-HBV ([1]; compound at 10 μM): 6.17
C#CCOCC1(COCC#C)COC2(CCN(CC3=C(C(=O)OC)C(c4ccc(F)cc4Cl)N=C(c4ccccn4)N3)CC2)OC1 (stereo not shown) [Compound B67] | 84 | 
COC(=O)C1=C(CNCCOCCOCCN=[N+]=[N-])NC(c2ccccn2)=NC1c1ccc(F)cc1Cl (stereo not shown) [Compound B68] | 49 | 
COC(=O)C1=C(CN2CCC3=NN(C)C(=O)C3C2)NC(c2ccccn2)=NC1c1ccc(F)cc1Cl (stereo not shown) [Compound B69] | 54 | 
C#CCNC(=O)CCCC(=O)N1CCN(CC2=C(C(=O)OC)C(c3ccc(F)cc3Cl)N=C(c3ccccn3)N2)CC1 (stereo not shown) [Compound B71] | 133 | 
COC(=O)C1=C(CN2CCN(CCOCCN=[N+]=[N-])CC2)NC(c2ccccn2)=NC1c1ccc(F)cc1Cl (stereo not shown) [Compound B72] | 29 | 
COC(=O)C1=C(CN2CCN(CCOCCOCCN=[N+]=[N-])CC2)NC(c2ccccn2)=NC1c1ccc(F)cc1Cl (stereo not shown) [Compound B74] | 21 | 
C#CCCCCC(=O)N1CCN(CC2=C(C(=O)OC)C(c3ccc(F)cc3Cl)N=C(c3ccccn3)N2)CC1 (stereo not shown) [Compound B75] | 134 | 
COC(=O)C1=C(CN2CCOCC2)NC(c2ccncc2)=NC1c1ccc(F)cc1Cl (stereo not shown) [Compound B76] | 36 | 
COC(=O)C1=C(C)NC(=S)NC1c1ccc(F)cc1Cl (stereo not shown) [Compound B77] | 15 | 
COC(=O)C1=C(C)NC(c2ccncc2)=NC1c1ccc(F)cc1Cl (stereo not shown) [Compound B-1] | 78 | 
CC1=C(C(=O)OCCN=[N+]=[N-])C(c2ccc(F)cc2Cl)N=C(c2ccncc2)N1 (stereo not shown) [Compound B-2] | 51 | 
C#CCNC(=O)C1=C(C)NC(c2ccncc2)=NC1c1ccc(F)cc1Cl (stereo not shown) [Compound B-3] | 48 | 
COC(=O)C1=C(C)NC(c2nc3ccc(OC)cc3s2)=NC1c1ccc(F)cc1Cl (stereo not shown) [Compound B-4] | 56 | 
CC1=C(C(=O)OCCC2CCC(CNS(=O)(=O)c3cccc4c(N(C)C)cccc34)C2)C(c2ccc(F)cc2Cl)N=C(c2ccncc2)N1 (stereo not shown) [Compound B-5] | 54 | 
COC(=O)C1=C(C)NC(c2ccccn2)=NC1c1ccc(F)cc1Cl (stereo not shown) [Compound B-6] | 95 | 
COC(=O)C1=C(C)NC(c2ccccc2)=NC1c1ccc(F)cc1Cl (stereo not shown) [Compound B-7] | 96 | 
C#CCOC(=O)C1=C(C)NC(c2ccccn2)=NC1c1ccc(F)cc1Cl (stereo not shown) [Compound B-12] | 83 | 
CC1=C(C(=O)NCc2cn(CCN3C(=O)c4ccccc4C3=O)nn2)C(c2ccc(F)cc2Cl)N=C(c2ccncc2)N1 (stereo not shown) [Compound B-13] | 55 | 
C#CCNC(=O)c1ccc(C2=NC(c3ccc(F)cc3Cl)C(C(=O)OC)=C(C)N2)nc1 (stereo not shown) [Compound B-15] | 48 | 
COC(=O)C1=C(C)NC(c2ccc(Br)cn2)=NC1c1ccc(F)cc1Cl (stereo not shown) [Compound B-17] | 87 | 

SMILES | Assembly [2] [%] | also measured
COC(=O)C1=C(C)NC(c2ccccn2)=NC1c1ccc(F)cc1Br (stereo not shown) [Compound B-18] | 93 | 
CCOC(=O)C1=C(c2ccccc2)NC(c2ccccn2)=NC1c1ccc(F)cc1Cl (stereo not shown) [Compound B-22] | 77 | 
CCOC(=O)C1=C(c2ccccn2)NC(c2ccccn2)=NC1c1ccc(F)cc1Cl (stereo not shown) [Compound B-23] | 47 | 
COC(=O)C1=C(C(C)C)NC(c2ccccn2)=NC1c1ccc(F)cc1Cl (stereo not shown) [Compound B-24] | 70 | 
COC(=O)C1=C(CCl)NC(c2ccccn2)=NC1c1ccc(F)cc1Cl (stereo not shown) [Compound B-25] | 54 | 
C#CCNCC1=C(C(=O)OC)C(c2ccc(F)cc2Cl)N=C(c2ccccn2)N1 (stereo not shown) [Compound B-34] | 65 | 
COC(=O)C1=C(CN2CCCC2)NC(c2ccccn2)=NC1c1ccc(F)cc1Cl (stereo not shown) [Compound B-35] | 87 | 
COC(=O)C1=C(CN2CCNCC2)NC(c2ccccn2)=NC1c1ccc(F)cc1Cl (stereo not shown) [Compound B-36] | 92 | 
COC(=O)C1=C(CN2CCN(Cc3ccc(Br)cc3)CC2)NC(c2ccccn2)=NC1c1ccc(F)cc1Cl (stereo not shown) [Compound B-54] | 21 | 
COC(=O)C1=C(CN2CCN(Cc3ccccn3)CC2)NC(c2ccccn2)=NC1c1ccc(F)cc1Cl (stereo not shown) [Compound B-55] | 60 | 
COC(=O)C1=C(CN2CCN(CC3CCCCC3)CC2)NC(c2ccccn2)=NC1c1ccc(F)cc1Cl (stereo not shown) [Compound B-56] | 15 | 
CCOC(=O)C1=C(CNC23CC4CC(CC(C4)C2)C3)NC(c2ccccn2)=NC1c1ccc(F)cc1Cl (stereo not shown) [Compound B-57] | 49 | 
CCOC(=O)C1=C(CNCC23CC4CC(CC(C4)C2)C3)NC(c2ccccn2)=NC1c1ccc(F)cc1Cl (stereo not shown) [Compound B-58] | 42 | 
C#CC(O)(C#C)C1CCN(CC2=C(C(=O)OC)C(c3ccc(F)cc3Cl)N=C(c3ccccn3)N2)CC1 (stereo not shown) [Compound B-59] | 57 | 
COC(=O)C1=C(CN2CCCCC2)NC(c2ccccn2)=NC1c1ccc(F)cc1Cl (stereo not shown) [Compound B-60] | 60 | 
COC(=O)C1=C(CN2CCOCC2)NC(c2ccccn2)=NC1c1ccc(F)cc1Cl (stereo not shown) [Compound B-061] |  | CC50 (HepG2): > 100000 nM; (YI) ratio of CC50/EC50, therapeutic index (HepG2; [3]): > 200; EC50 ([1]; given in place of % inhibition at 10 μM, read-out: EC50 (printed in % Inhibition column)): 550 nM; EC50 [1, 4]: 490 nM; EC90 [1]: 1000 nM; Assembly ([2]; listed as B61): 99%; Assembly ([2]; listed as B-61): 51% and 80%
COC(=O)C1=C(CN2CCN(C(=O)CCCC(=O)NCCCN=[N+]=[N-])CC2)NC(c2ccccn2)=NC1c1ccc(F)cc1Cl (stereo not shown) [Compound B-070] | 123 | CC50 (HepG2): 8400 nM; (YI) ratio of CC50/EC50, therapeutic index (HepG2; [3]): 3.7; % Inhibition ([1]; compound at 10 μM): 99.88%; Δ-Ct-HBV ([1]; compound at 10 μM): 9.77; EC50 [1, 4]: 2300 nM; EC90 [1]: 5900 nM
C#CCCCCN1CCN(CC2=C(C(=O)OC)C(c3ccc(F)cc3Cl)N=C(c3ccccn3)N2)CC1 (stereo not shown) [Compound B-073] | 69 | CC50 (HepG2): 3700 nM; (YI) ratio of CC50/EC50, therapeutic index (HepG2; [3]): 0.5; % Inhibition ([1]; compound at 10 μM): 64.44%; Δ-Ct-HBV ([1]; compound at 10 μM): 1.5; EC50 [1, 4]: 7600 nM; EC90 [1]: > 10000 nM
COC(=O)C1=C(CN2CCNC(=O)CC2)NC(c2ccccn2)=NC1c1ccc(F)cc1Cl (stereo not shown) [Compound B-120] | 96 | CC50 (HepG2): 32000 nM; (YI) ratio of CC50/EC50, therapeutic index (HepG2; [3]): 99; % Inhibition ([1]; compound at 10 μM): 99.87%; Δ-Ct-HBV ([1]; compound at 10 μM): 9.65; EC50 [1, 4]: 300 nM; EC90 [1]: 900 nM
COC(=O)C1=C(CCl)NC(c2ccccn2)=NC1c1ccc(F)cc1Cl (stereo not shown) [HAP2, reference compound] | 99 | 
